Columns and labels:
P. bivia PulA = molecular target: T1, P. bivia PulA (Prevotella bivia, UniProt I4Z8K5); assay: BODIPY fluorescent starch amylase assay with purified enzyme; format: biochemical
T1 construct: gene PrebiDRAFT_0808
Description: BODIPY fluorescent starch amylase assay with purified enzyme on P. bivia PulA | Acarbose inhibited G. vaginalis PulA, P. bivia PulA and P. bivia GH13 enzymes

G. vaginalis PulA = molecular target: T2, G. vaginalis PulA (Gardnerella vaginalis, UniProt A0ACD7VVB6); assay: fluorescent (BODIPY) starch hydrolysis; format: biochemical; details: BODIPY starch substrate; 15 min preincubation; 37 °C; pH not stated; error is 95% confidence interval
T2 construct: gene GAVG_1021; signal peptide removed, N-terminal His6 (pET28a, pETpullGV), E. coli ArcticExpress (DE3), 219 kDa, two alpha-amylase (GH13) domains (D233, D1317)
T2 sequence (A0ACD7VVB6 34-2012): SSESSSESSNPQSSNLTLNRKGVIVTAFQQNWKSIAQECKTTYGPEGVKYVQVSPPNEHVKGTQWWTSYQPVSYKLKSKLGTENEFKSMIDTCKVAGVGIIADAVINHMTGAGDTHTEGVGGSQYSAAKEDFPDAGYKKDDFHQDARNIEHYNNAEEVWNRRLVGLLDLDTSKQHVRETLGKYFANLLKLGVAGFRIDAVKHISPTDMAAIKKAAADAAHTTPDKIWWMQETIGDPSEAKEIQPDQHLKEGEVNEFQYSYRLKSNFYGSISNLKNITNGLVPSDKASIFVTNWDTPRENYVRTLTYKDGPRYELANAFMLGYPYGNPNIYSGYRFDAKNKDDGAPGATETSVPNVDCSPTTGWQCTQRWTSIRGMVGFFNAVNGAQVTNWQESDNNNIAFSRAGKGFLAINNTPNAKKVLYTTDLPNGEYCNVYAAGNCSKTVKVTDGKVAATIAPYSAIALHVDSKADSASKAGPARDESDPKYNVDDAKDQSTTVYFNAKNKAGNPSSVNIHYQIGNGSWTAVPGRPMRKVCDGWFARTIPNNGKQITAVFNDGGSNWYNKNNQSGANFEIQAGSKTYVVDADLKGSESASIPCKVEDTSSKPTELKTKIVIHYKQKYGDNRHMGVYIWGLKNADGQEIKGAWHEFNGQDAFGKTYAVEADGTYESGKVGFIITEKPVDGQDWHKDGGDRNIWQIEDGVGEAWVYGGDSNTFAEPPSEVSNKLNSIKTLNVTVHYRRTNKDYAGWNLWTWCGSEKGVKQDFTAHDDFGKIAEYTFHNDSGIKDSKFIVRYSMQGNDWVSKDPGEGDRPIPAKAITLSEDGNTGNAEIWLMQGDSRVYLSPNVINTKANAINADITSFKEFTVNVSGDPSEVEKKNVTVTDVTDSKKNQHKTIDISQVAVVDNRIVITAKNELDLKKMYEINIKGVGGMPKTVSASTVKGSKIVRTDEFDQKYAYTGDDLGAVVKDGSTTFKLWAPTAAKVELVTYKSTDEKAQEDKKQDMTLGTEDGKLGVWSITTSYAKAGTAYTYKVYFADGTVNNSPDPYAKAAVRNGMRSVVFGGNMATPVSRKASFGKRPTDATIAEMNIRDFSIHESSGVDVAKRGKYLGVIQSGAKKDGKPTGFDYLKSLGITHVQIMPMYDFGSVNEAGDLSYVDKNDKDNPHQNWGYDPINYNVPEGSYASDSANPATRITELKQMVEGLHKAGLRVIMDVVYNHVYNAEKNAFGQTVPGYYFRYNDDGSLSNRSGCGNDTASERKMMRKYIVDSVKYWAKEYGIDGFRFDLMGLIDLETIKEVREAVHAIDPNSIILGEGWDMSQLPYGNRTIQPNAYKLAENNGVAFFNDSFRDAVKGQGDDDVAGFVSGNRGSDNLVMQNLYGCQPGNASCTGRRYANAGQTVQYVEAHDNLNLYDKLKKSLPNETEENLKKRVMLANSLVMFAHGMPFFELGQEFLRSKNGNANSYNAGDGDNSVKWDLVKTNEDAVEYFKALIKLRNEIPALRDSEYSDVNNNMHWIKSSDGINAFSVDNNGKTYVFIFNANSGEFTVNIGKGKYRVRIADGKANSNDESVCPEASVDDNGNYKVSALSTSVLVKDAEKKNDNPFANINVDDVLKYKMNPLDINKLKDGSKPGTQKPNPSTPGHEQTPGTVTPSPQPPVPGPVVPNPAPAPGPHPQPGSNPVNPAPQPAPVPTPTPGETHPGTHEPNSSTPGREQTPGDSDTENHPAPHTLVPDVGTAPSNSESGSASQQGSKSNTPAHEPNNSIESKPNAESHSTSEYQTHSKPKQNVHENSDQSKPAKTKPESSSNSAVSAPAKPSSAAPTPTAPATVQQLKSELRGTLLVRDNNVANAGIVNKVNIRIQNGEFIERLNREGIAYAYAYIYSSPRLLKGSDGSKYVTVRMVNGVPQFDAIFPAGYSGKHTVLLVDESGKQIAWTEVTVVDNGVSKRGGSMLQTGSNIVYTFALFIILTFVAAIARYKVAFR
Description: fluorescent (BODIPY) starch hydrolysis on G. vaginalis PulA | Acarbose inhibited G. vaginalis PulA, P. bivia PulA and P. bivia GH13 enzymes

T1 sequence (I4Z8K5 23-637 limits assumed): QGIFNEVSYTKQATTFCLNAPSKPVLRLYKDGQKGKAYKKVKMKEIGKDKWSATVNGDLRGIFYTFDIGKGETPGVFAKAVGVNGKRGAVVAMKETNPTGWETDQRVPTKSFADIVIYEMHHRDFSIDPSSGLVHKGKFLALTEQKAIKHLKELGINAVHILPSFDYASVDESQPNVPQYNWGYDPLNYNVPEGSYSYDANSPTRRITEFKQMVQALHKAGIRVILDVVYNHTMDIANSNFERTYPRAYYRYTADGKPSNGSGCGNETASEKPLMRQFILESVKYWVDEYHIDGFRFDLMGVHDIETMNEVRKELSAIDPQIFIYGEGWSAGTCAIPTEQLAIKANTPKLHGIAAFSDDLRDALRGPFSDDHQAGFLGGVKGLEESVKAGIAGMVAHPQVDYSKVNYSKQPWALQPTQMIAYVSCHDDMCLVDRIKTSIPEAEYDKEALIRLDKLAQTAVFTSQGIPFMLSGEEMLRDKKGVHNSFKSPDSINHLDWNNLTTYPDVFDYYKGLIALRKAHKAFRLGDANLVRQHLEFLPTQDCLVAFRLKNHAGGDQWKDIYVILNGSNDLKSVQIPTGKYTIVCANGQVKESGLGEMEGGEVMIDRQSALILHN

C[C@H]1O[C@H](O[C@H]2[C@H](O)[C@@H](O)[C@@H](O[C@H]3[C@H](O)[C@@H](O)C(O)O[C@@H]3CO)O[C@@H]2CO)[C@H](O)[C@@H](O)[C@@H]1N[C@H]1C=C(CO)[C@@H](O)[C@H](O)[C@H]1O (some centres unmarked) [acarbose]
IC50 (P. bivia PulA): 420 ± 90 µM
IC50 (G. vaginalis PulA): 120 ± 30 µM

— paper PMC10465358 (Nature Microbiology, 2023)
